In publication PMC10499049, “Characterization of norbelladine synthase and noroxomaritidine/norcraugsodine reductase reveals a novel catalytic route for the biosynthesis of Amaryllidaceae alkaloids including the Alzheimer’s drug galanthamine” (Frontiers in Plant Science, 2023):

Experiments:
[1] = target: T1, LaNR (Leucojum aestivum, UniProt Z9Z857OJM6); experiment: HPLC-MS/MS of norbelladine formed, with and without NADPH; type: biochemical; conditions: […] NADPH; […] tyramine, […],4-DHBA; […] sodium citrate pH […]; […] C; […] h
T1 construct: full-length 269 aa (29 kDa), N-terminal MBP fusion (pMAL-c2x), tag kept, E. coli Rosetta (DE3) pLysS

[2] = target: T2, NpNR (Narcissus papyraceus, UniProt A0A346TLF8); experiment: as above; type: biochemical; conditions: 1 mM NADPH; 10 uM tyramine, 300 uM 3,4-DHBA; 100 mM sodium citrate pH 6.0; 35 C; 2 h
T2 construct: gene NorRed1; full-length 269 aa (29 kDa), N-terminal MBP fusion (pMAL-c2x), tag kept, E. coli Rosetta (DE3) pLysS

[3] = target: N. papyraceus noroxomaritidine/norcraugsodine reductase, yeast two-hybrid fusions (Narcissus papyraceus)
Sequence of N. papyraceus noroxomaritidine/norcraugsodine reductase, yeast two-hybrid fusions (Narcissus papyraceus) (A0A346TLF8 entry or part of it): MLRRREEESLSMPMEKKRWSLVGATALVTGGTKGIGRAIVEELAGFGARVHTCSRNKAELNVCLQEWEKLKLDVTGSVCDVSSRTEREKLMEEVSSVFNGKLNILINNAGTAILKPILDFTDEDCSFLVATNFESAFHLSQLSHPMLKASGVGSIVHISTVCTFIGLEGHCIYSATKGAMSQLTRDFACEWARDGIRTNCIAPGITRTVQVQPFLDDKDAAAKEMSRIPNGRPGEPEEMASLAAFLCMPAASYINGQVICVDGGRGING

T1 sequence (Z9Z857OJM6 1-271): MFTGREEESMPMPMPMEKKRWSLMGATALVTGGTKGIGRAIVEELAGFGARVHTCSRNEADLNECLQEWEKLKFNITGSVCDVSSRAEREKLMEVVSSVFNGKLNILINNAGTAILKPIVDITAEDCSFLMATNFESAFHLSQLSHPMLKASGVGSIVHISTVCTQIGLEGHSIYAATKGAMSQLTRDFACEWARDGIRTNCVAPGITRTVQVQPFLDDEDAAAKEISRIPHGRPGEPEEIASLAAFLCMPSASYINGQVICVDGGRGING
T2 sequence (A0A346TLF8 1-269): as the sequence (A0A346TLF8 entry or part of it) above

Molecule: NC(=O)C1=CN([C@@H]2O[C@H](COP(=O)(O)OP(=O)(O)OC[C@H]3O[C@@H](n4cnc5c(N)ncnc54)[C@H](OP(=O)(O)O)[C@@H]3O)[C@@H](O)[C@H]2O)C=CC1 [NADPH]
- HPLC-MS/MS of norbelladine formed, with and without NADPH [1]: NR assays lacking NADPH resulted in no norbelladine production
- HPLC-MS/MS of norbelladine formed, with and without NADPH [2]: NR assays lacking NADPH resulted in no norbelladine production

Molecule: N. papyraceus norbelladine synthase, yeast two-hybrid fusions (enzyme)
- norbelladine produced by yeast cultures co-expressing NpNBS and NpNR, fed with tyramine and 3,4-DHBA (HPLC-MS/MS, peak area relative to papaverine); none detected with either enzyme alone (relative peak area ratio) [3]: 0.22
